Experimental data published in ChEMBL document CHEMBL5579860, “Design and synthesis of novel Thiazolo[5,4-b]pyridine derivatives as potent and selective EGFR-TK inhibitors targeting resistance Mutations in non-small cell lung cancer” (Eur J Med Chem, 2024).
pIC50: −log10 of the molar value. Activity calls are given as the source filed them. No cut-off for these calls is given here.

What was measured:
HCC827 [1] = experiment: Anticancer activity against human HCC827 cells incubated for 72 hrs by MTT assay; type: functional, cell-based; settings: HCC827, 72 h
NCI-H1975 = experiment: Anticancer activity against human NCI-H1975 cells incubated for 72 hrs by MTT assay; type: functional, cell-based; settings: NCI-H1975, 72 h
A549 = experiment: Anticancer activity against human A549 cells incubated for 72 hrs by MTT assay; type: functional, cell-based; settings: A549, 72 h
[2] = Cytotoxicity against human BEAS-2B cells; type: toxicity, cell-based
HCC827 [3] = experiment: Induction of apoptosis in human HCC827 cells assessed as early apoptotic cells at IC50 concentration incubated for 24 to 48 hrs by Annexin V-FITC/PI staining based flow cytometry ( Rvb = 2.0% ); type: functional; settings: time 24-48 hrs
HCC827 [4] = experiment: Induction of apoptosis in human HCC827 cells assessed as late apoptotic cells at IC50 concentration incubated for 24 to 48 hrs by Annexin V-FITC/PI staining based flow cytometry ( Rvb = 1.6% ); type: functional; settings: time 24-48 hrs
[5] = biological target: Epidermal growth factor receptor (Homo sapiens) (UniProt P00533); experiment: Inhibition of EGFR autophosphorylation in human HCC827 cells at 0.01 to 1.00 uM incubated for 8 hrs by Western blot analysis; type: cell-based; settings: dose 0.01-1 µM
Chain of Epidermal growth factor receptor (Homo sapiens) (P00533 whole entry): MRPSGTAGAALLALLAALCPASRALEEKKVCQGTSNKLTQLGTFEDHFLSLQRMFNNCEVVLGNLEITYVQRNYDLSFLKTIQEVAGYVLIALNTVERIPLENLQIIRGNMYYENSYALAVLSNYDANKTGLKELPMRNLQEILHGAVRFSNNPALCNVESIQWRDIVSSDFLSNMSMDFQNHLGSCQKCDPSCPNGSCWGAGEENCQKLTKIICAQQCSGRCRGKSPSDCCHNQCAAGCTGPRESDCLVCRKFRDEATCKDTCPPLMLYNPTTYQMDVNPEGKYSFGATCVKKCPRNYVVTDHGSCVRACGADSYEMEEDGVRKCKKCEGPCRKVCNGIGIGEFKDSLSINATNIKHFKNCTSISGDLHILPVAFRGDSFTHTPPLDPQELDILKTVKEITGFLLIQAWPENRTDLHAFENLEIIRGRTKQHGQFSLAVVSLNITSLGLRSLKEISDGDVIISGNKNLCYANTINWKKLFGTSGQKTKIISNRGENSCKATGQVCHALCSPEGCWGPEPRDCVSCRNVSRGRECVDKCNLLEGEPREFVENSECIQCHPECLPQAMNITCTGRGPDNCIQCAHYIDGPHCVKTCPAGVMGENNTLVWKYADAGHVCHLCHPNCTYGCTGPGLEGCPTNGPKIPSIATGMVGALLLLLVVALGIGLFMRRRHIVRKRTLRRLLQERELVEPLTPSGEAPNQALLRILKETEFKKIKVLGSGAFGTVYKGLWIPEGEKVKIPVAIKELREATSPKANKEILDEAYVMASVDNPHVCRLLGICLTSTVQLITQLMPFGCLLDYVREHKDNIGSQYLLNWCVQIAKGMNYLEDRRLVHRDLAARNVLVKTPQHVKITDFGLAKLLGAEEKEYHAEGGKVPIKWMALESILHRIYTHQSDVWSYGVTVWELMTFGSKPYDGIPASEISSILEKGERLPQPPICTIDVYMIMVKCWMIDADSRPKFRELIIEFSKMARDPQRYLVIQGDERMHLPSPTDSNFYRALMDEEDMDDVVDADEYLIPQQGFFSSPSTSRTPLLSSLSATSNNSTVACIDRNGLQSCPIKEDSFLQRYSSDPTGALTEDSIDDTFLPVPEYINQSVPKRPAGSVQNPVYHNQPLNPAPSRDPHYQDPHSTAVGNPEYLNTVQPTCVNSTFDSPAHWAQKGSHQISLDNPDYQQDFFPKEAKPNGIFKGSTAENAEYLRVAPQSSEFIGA

| Structure (SMILES) | pIC50 (HCC827 [1]) | pIC50 (NCI-H1975) | pIC50 (A549) | pIC50 [2] | Activity (HCC827 [3]) | Activity (HCC827 [4]) | inhibition [5] |
| --- | --- | --- | --- | --- | --- | --- | --- |
| COc1ccc(F)cc1S(=O)(=O)Nc1cccc(-c2nc3cc(-c4cccnc4)cnc3s2)c1C | 5.22 | 5.21 | 4.95 |  |  |  |  |
| COc1cccc(-c2cnc3sc(-c4cccc(NS(=O)(=O)c5cc(F)ccc5F)c4C)nc3c2)c1 | 6.14 | 6.47 | 5.96 |  |  |  |  |
| C=CC(=O)Nc1cc(Nc2nccc(-c3cn(C)c4ccccc34)n2)c(OC)cc1N(C)CCN(C)C [OSIMERTINIB] | 8.15 |  | 6.07 |  |  |  |  |
| CCc1cnc2sc(-c3cccc(NS(=O)(=O)c4cc(F)ccc4F)c3C)nc2c1 | 6.15 | 6.38 | 5.83 |  |  |  |  |
| COc1cccc(-c2cnc3sc(-c4cccc(NS(=O)(=O)c5cc(F)ccc5OC)c4C)nc3c2)c1 | 5.21 | 5.15 | 4.93 |  |  |  |  |
| COc1ccc(F)cc1S(=O)(=O)Nc1cccc(-c2nc3cc(CN4CCOCC4)cnc3s2)c1C | 5.34 | 5.33 | 5.07 |  |  |  |  |
| COc1ccc(F)cc1S(=O)(=O)Nc1cccc(-c2nc3cc(C#N)cnc3s2)c1C | 5.21 | 5.20 | 4.94 |  |  |  |  |
| Cc1c(NS(=O)(=O)c2cc(F)ccc2F)cccc1-c1nc2cc(C#N)cnc2s1 | 7.03 | 6.55 | 5.89 |  |  |  |  |
| Cc1c(NS(=O)(=O)c2ccc(F)cc2F)cccc1-c1nc2cccnc2s1 | 5.85 | 5.68 | 5.50 |  |  |  |  |
| Cc1c(NS(=O)(=O)c2cc(F)ccc2F)cccc1-c1nc2cc(-c3cccs3)cnc2s1 | 6.96 | 6.52 | 5.88 |  |  |  |  |
| Cc1c(NS(=O)(=O)c2cc(F)ccc2F)cccc1-c1nc2cc(-c3ccc(C#N)nc3)cnc2s1 | 7.39 | 6.92 | 6.04 | 4.43 |  |  |  |
| Cc1c(NS(=O)(=O)c2ccc(F)c(C#N)c2)cccc1-c1nc2cccnc2s1 | 5.84 | 5.68 | 5.49 |  |  |  |  |
| COc1ccc(F)cc1S(=O)(=O)Nc1cccc(-c2nc3cc(-c4cccs4)cnc3s2)c1C | 5.31 | 5.33 | 5.04 |  |  |  |  |
| COc1ccc(F)cc1S(=O)(=O)Nc1cccc(-c2nc3cc(-c4cccnc4OC)cnc3s2)c1C | 5.36 | 5.34 | 5.08 |  |  |  |  |
| COc1ccc(F)cc1S(=O)(=O)Nc1cccc(-c2nc3cc(-c4cc[nH]n4)cnc3s2)c1C | 5.30 | 5.31 | 5.03 |  |  |  |  |
| Cc1c(NS(=O)(=O)c2cc(F)ccc2F)cccc1-c1nc2cc(-c3cc[nH]n3)cnc2s1 | 6.85 | 6.52 | 5.87 |  |  |  |  |
| Cc1c(NS(=O)(=O)c2cnn(C)c2)cccc1-c1nc2cccnc2s1 | 5.66 | 5.48 | 5.37 |  |  |  |  |
| COc1cc(-c2cnc3sc(-c4cccc(NS(=O)(=O)c5cc(F)ccc5OC)c4C)nc3c2)ccn1 | 5.35 | 5.34 | 5.07 |  |  |  |  |
| COc1ccc(F)cc1S(=O)(=O)Nc1cccc(-c2nc3cc(CN4CCN(C)CC4)cnc3s2)c1C | 5.35 | 5.34 | 5.07 |  |  |  |  |
| Cc1c(NS(=O)(=O)Cc2ccccc2)cccc1-c1nc2cccnc2s1 | 5.65 | 5.47 | 5.34 |  |  |  |  |
| Cc1c(NS(=O)(=O)c2ccccc2)cccc1-c1nc2cccnc2s1 | 5.66 | 5.48 | 5.34 |  |  |  |  |
| COc1ccc(F)cc1S(=O)(=O)Nc1cccc(-c2nc3cc(-c4ccccc4)cnc3s2)c1C | 5.22 | 5.21 | 4.96 |  |  |  |  |
| Cc1c(NS(=O)(=O)c2cc(F)ccc2F)cccc1-c1nc2cc(-c3cncnc3)cnc2s1 | 7.68 | 6.96 | 6.06 | 4.38 |  |  |  |

| Structure (SMILES) | pIC50 (HCC827 [1]) | pIC50 (NCI-H1975) | pIC50 (A549) | pIC50 [2] | Activity (HCC827 [3]) | Activity (HCC827 [4]) | inhibition [5] |
| --- | --- | --- | --- | --- | --- | --- | --- |
| Cc1c(N)cccc1-c1nc2cccnc2s1 | 5.00 | 4.90 | 4.54 |  |  |  |  |
| Cc1c(NS(=O)(=O)c2cc(F)ccc2F)cccc1-c1nc2cc(-c3cnc(N)nc3)cnc2s1 | 8.00 | 7.10 | 6.09 | 4.42 | 31.9% | 8.8% | Active |
| Cc1c(NS(=O)(=O)c2cc(F)ccc2F)cccc1-c1nc2cc(CN3CCN(C)CC3)cnc2s1 | 6.28 | 6.11 | 5.64 |  |  |  |  |
| COc1ccc(F)cc1S(=O)(=O)Nc1cccc(-c2nc3cc(-c4ccc(C(F)(F)F)nc4)cnc3s2)c1C | 5.36 | 5.35 | 5.08 |  |  |  |  |
| COc1ccc(F)cc1S(=O)(=O)Nc1cccc(-c2nc3cc(-c4cnc(N)nc4)cnc3s2)c1C | 5.37 | 5.38 | 5.09 |  |  |  |  |
| COc1ccc(F)cc1S(=O)(=O)Nc1cccc(-c2nc3cc(-c4cncnc4)cnc3s2)c1C | 5.36 | 5.36 | 5.09 |  |  |  |  |
| Cc1c(NS(=O)(=O)c2cc(F)ccc2F)cccc1-c1nc2cc(-c3cccc(C(F)(F)F)c3)cnc2s1 | 7.04 | 6.59 | 5.92 |  |  |  |  |
| Cc1c(NS(=O)(=O)C2CCOCC2)cccc1-c1nc2cccnc2s1 | 5.68 | 5.51 | 5.38 |  |  |  |  |
| COc1ccc(F)cc1S(=O)(=O)Nc1cccc(-c2nc3cc(-c4ccc(C#N)nc4)cnc3s2)c1C | 5.36 | 5.35 | 5.08 |  |  |  |  |
| CC(=O)c1ccc(-c2cnc3sc(-c4cccc(NS(=O)(=O)c5cc(F)ccc5F)c4C)nc3c2)cc1 | 6.25 | 6.44 | 5.85 |  |  |  |  |
| COc1ncccc1-c1cnc2sc(-c3cccc(NS(=O)(=O)c4cc(F)ccc4F)c3C)nc2c1 | 7.40 | 6.82 | 6.04 | 4.43 |  |  |  |
| Cc1c(NS(=O)(=O)c2cc(F)ccc2F)cccc1-c1nc2cc(CN3CCOCC3)cnc2s1 | 6.38 | 6.34 | 5.68 |  |  |  |  |
| CSc1ncc(-c2cnc3sc(-c4cccc(NS(=O)(=O)c5cc(F)ccc5F)c4C)nc3c2)cn1 | 8.00 | 7.05 | 6.10 | 4.36 |  |  |  |
| COc1cc(-c2cnc3sc(-c4cccc(NS(=O)(=O)c5cc(F)ccc5F)c4C)nc3c2)ccn1 | 7.38 | 6.74 | 6.02 |  |  |  |  |
| Cc1c(NS(=O)(=O)c2cccnc2)cccc1-c1nc2cccnc2s1 | 5.68 | 5.51 | 5.39 |  |  |  |  |
| COc1ccc(F)cc1S(=O)(=O)Nc1cccc(-c2nc3cc(-c4ccc(C(C)=O)cc4)cnc3s2)c1C | 5.21 | 5.20 | 4.94 |  |  |  |  |
| COc1ccc(F)cc1S(=O)(=O)Nc1cccc(-c2nc3cc(-c4cccc(C(F)(F)F)c4)cnc3s2)c1C | 5.22 | 5.21 | 4.96 |  |  |  |  |
| Cc1c(NS(=O)(=O)c2ccccc2OC(F)(F)F)cccc1-c1nc2cccnc2s1 | 5.82 | 5.66 | 5.50 |  |  |  |  |
| Cc1c(NS(=O)(=O)c2cc(F)ccc2F)cccc1-c1nc2cc(-c3ccc(C(F)(F)F)nc3)cnc2s1 | 7.36 | 6.66 | 6.01 |  |  |  |  |
| Cc1c(NS(=O)(=O)c2cc(F)ccc2F)cccc1-c1nc2cc(-c3ccccc3)cnc2s1 | 7.05 | 6.66 | 5.94 |  |  |  |  |
| Cc1c(NS(=O)(=O)c2cc(F)ccc2F)cccc1-c1nc2cccnc2s1 | 5.94 | 5.96 | 5.51 |  |  |  |  |
| Cc1c(NS(=O)(=O)c2cccc(Cl)c2)cccc1-c1nc2cccnc2s1 | 5.80 | 5.66 | 5.48 |  |  |  |  |
| Cc1c(NS(=O)(=O)c2cc(F)ccc2F)cccc1-c1nc2cc(CN3CCCC3)cnc2s1 | 6.31 | 6.28 | 5.66 |  |  |  |  |
